Counter-ions that a name gives are not always drawn. Like-named read-outs stand apart in the source and are kept apart here.
What was measured:
[1] = tested on: Zymosan Stimulated Macrophaqes; assay: Test A: Inhibition of Arachidonic Acid Release from Zymosan Stimulated Macrophages; type: cell-based, mouse (female MF1); details: inhibition of arachidonic acid release, six concentrations (100, 50, 20, 10, 5 and 1 μM), 5 h with zymosan, read-out: Test A IC50
Protocol: Inhibition of Arachidonic Acid Release from Zymosan Stimulated Macrophaqes
Female MF1 mice (weighing 20 to 25 g) were killed using a rising concentration of CO2. The mice were laid on their backs and the abdomens wiped with 70% alcohol. The skin was pulled back, exposing the peritoneal wall. Medium A (5 ml) (see below) was injected into the peritoneal cavity of each mouse followed by approximately 1 ml of air using a 20 ml syringe and a 21 G×40 mm needle in order to form a suspension of macrophage cells. The medium and cells were then removed using a 19 G×40 mm needle. The resulting suspension was returned to a sterile beaker kept on ice. The extracts from all the mice were pooled and this pooled cell suspension was counted using a Coulter counter and adjusted to a final cell count of 1-1.3×10^6 cells/ml prior to labelling with [^3 H]-arachidonic acid. Typically five mice provided sufficient cells for each multiwell plate.
Sufficient [^3 H]-arachidonic acid in ethanol to give a final concentration of 1.6 μCi/ml (equivalent to 40 μCi/plate) was blown to dryness under nitrogen. The arachidonic acid was then resuspended in 1 or 2 ml of the cell suspension which was then mixed with the remainder of the cell suspension in a centrifuge bottle. The labelled cell suspension was then plated out into sterile plastic 96 flat-bottomed well plates (250 μl per well) and incubated overnight at 37° C. in a moist atmosphere of 5% CO2, 95% air.
The following day, non-adherent cells were removed by washing 3 times with sterile phosphate buffered saline (PBS). The adherent peritoneal macrophages were then cultured for a further 24 hours in the presence or absence of drugs, in medium B (see below) at 37° in a 5% CO2 atmosphere in order to measure the effects of drugs on the spontaneous release of arachidonic acid in the absence of stimulus. After this incubation, supernatants were removed to give media 1 and stored in sealed multi-well plates at 4° C. prior to scintillation counting. Drugs which potentiated spontaneous release of arachidonic acid (125% of controls) were deemed to be toxic at the concentration at which this phenomenon occurred. The supernatants were replaced by fresh medium C containing fresh drug and a stimulus. Three drugs were tested at six concentrations (100, 50, 20, 10, 5 and 1 μM) in replicates of four on each plate. The other wells contained controls consisting of a positive control (e.g. dexamethasone), medium (B) only and medium C only.
Incubation was then continued for a further 5 hours, whereupon the supernatants were collected to give media 2 and the adherent cells washed with PBS. The cells were then lysed with 100 μl of 0.1% TRITON® X100 in a 0.1% solution of bovine serum albumin in 0.9% saline and mechanically disrupted to give cell lysates. These supernatants (media 2) and cell lysates (Cells) were also stored in sealed multi-well plates at 4° C. prior to scintillation counting. 200 μl aliquots of media, or 100 μl aliquots of cells were counted using 2 ml of OPTIPHASE "HIGH SAFE" (Trademark of LKB) as scintillant.
The percentage of arachidonic acid released was calculated using the mean values for each group of 4 wells in the following equation. [formula] cpm=courts per minute
The value for the arachidonic acid release in the absence of stimulus (spontaneous, cpm of media 2) from cells which had been exposed to neither stimulus nor drug was subtracted from all equivalent values (cpm media 2, stimulated with or without drug) to give the net stimulated release. The percentage inhibition of arachidonic acid release caused by a drug may then be calculated using the following equation. [formula]
Compounds of formula I were tested at six concentrations (100, 50, 20, 10, 5 and 1 μM) and IC50 values calculated. Compounds with IC50 values<100 μM are considered to be active. Advantageous compounds have an IC50 value <50 μM.
Medium A (for peritoneal lavage) […]

[2] = tested on: Carrageenan-induced rat paw oedema; assay: Test B: Carrageenan-induced rat paw oedema test; type: in vivo, rat (female); details: inhibition of paw oedema, 1 h before carrageenan, 3 h after injection; for inhibition in vivo at 100 mg/kg: Rattus norvegicus, po, 3 h; for Test B % inhibition at 100 mg/kg: oral
Protocol: Carrageenan-induced rat paw oedema test
Female rats, weight range 125-150 g were fasted overnight. One of the hind legs of each animal was marked with a line at the connection between the cuboid/navicular and calcaneus/talus bones. Groups of six rats were orally dosed at 10 ml/kg, in random order, with a given dose of the test compound given as a solution or suspension in 10% (w/v) aqueous acacia solution.
One hour after dosing, 0.1 ml of 1% (w/v) sterile carrageenan λ in normal saline was injected deeply into the plantar surface of the marked hind foot of each rat. The volume of the foot (up to the marked line) was measured immediately after injection using duplicate water displacement readings. Three hours after injection the foot volume was measured again and the percentage increase in foot volume relative to the initial reading was calculated.
The increase in foot volume (i.e. the degree of oedema) in drug treated animals when compared with that in the drug untreated control gave the degree of inhibition of paw oedema by the drug.
Compounds were considered to be active in this test if they produced a 20% or greater inhibition of paw oedema in at least two out of three tests after oral dosing at 100 mg/kg. Statistical significance was assessed using the Student't test for single dose studies and Dunnett's test for multiple dose studies. More advantageous compounds were active in both Tests A and B,

Row | Structure (SMILES) | IC50 ([1]; Mus musculus, Macrophage, 5 h) [µM] | inhibition in vivo at 100 mg/kg [2] [%] | IC50 ([1]; listed as 68 (1)) [µM] | IC50 [1] [µM] | Test B % inhibition at 100 mg/kg [2] [%]
1 | CCC(NCCCn1ccnc1)c1ccc(Cl)cc1 (stereo not drawn) [Example 30, N-[1-(4-chlorophenyl)propyl]-3-(imidazol-1-yl)propylamine oxalate] | 24 | 39 |  |  | 
2 | CCCCOc1ccc(C(C)NCCCn2ccnc2)cc1 (stereo not drawn) [Example 22, N-[1-(4-Butoxyphenyl)ethyl]-3-(imidazol-1-yl)propylamine dioxalate] | 21 | 17 |  |  | 
3 | Cc1cn(CCCNC(C)c2ccc(Cl)cc2)c(-c2ccccc2)n1 (stereo not drawn) [Example 33, N-[1-(4-chlorophenyl)ethyl]-3-(4-methyl-2-phenyl-imidazol-1-yl)propylamine] | 10 | 2 |  |  | 
4 | CC(NCCCn1ccnc1)c1ccc(C(F)(F)F)cc1 (stereo not drawn) [Example 11, 3-(Imidazol-1-yl)-N-[1-(4-trifluoromethylphenyl)ethyl]propylamine] | 45 | 34 |  |  | 
5 | CC(NCCCn1ccnc1)c1ccc(Cl)cc1 (stereo not drawn) [Example 1, N-[1-(4-chlorophenyl)ethyl]-3-(imidazol-1-yl)propylamine dihydrochloride] | 55 | 59 |  |  | 
6 | COC(=O)c1ccc(CNCCCn2ccnc2C)cc1 [Example 49, methyl 4-[3-(2-methylimidazol-1-yl)propylaminomethyl]benzoate] | 45 | 0 |  |  | 
7 | CC(NCCCn1ccnc1)c1ccc(Cl)cc1Cl (stereo not drawn) [Example 2, N-[1-(2,4-Dichlorophenyl)ethyl]-3-(imidazol-1-yl)propylamine] | 39 | 37 |  |  | 
8 | Cc1nccn1CCCNC(C)c1ccc(Cl)cc1 (stereo not drawn) [Example 27, N-[1-(4-Chlorophenyl)ethyl]-3-(2-methylimidazol-1-yl)propylamine dihydrochloride] | 8 | 27 |  |  | 
9 | CC(NCCCn1ccnc1)c1cccc(Cl)c1 (stereo not drawn) [Example 7, N-[1-(3-Chlorophenyl)ethyl]-3-(imidazol-1-yl)propylamine] | 94 | 48 |  |  | 
10 | CC(C)(NCCCn1ccnc1)c1ccc(Cl)cc1 [Example 59, N-[1-(4-chlorophenyl)-1-methylethyl]-3-(imidazol-1-yl)propylamine] |  | 65 | 35 | 35 | 
11 | Cc1cn(CCCNC(C)c2ccc(Cl)cc2)c(Cc2ccccc2)n1 (stereo not drawn) [Example 32, 3-[2-benzyl-4-methylimidazol-1-yl]-N-[1-(4-chlorophenyl)ethyl]propylamine] | 6 | 35 |  |  | 
12 | CC(NCCCn1ccnc1)c1ccc(Cl)cc1O (stereo not drawn) [Example 29, 5-chloro-2-{1-[3-(imidazol-1-yl)propylamino]ethyl}phenol dihydrochloride] | 34 | 36 |  |  | 
13 | Cc1cn(CCCNCc2ccc(Cl)cc2)c(Cc2ccccc2)n1 [Example 47] |  |  |  | 7 | 35
14 | Cc1ncn(CCCNC(C)c2ccc(Cl)cc2)c1C (stereo not drawn) [Example 24, N-[1-(4-Chlorophenyl)ethyl]-3-(4,5-dimethylimidazol-1-yl)propylamine dihydrochloride] | 11 | 34 |  |  | 
15 | Cc1ncn(CCCNCc2ccc(Cl)cc2)c1C [Example 45, N-(4-Chlorobenzyl)-3-(4,5-dimethylimidazol-1-yl)propylamine dihydrochloride] | 8 | 6 |  |  | 
16 | CC(NCCCn1ccnc1)c1ccc(Cl)cc1 (single isomer, unassigned; (+)) [Example 56, (+) N-[1-(4-Chlorophenyl)ethyl]-3-(imidazol-1-yl)propylamine dihydrochloride] | 16 | 57 |  |  | 
17 | CC(C)c1nccn1CCCNC(C)c1ccc(Cl)cc1 (stereo not drawn) [Example 65, N-[1-(4-Chlorophenyl)ethyl]-3-(2-isopropylimidazol-1-yl)propylamine] | 18 | 27 |  |  | 
18 | CC(NCCCn1ccnc1)c1ccc(Br)cc1 (stereo not drawn) [Example 14, N-[1-(4-Bromophenyl)ethyl]-3-(imidazol-1-yl)propylamine] | 60 | 60 |  |  | 
19 | CCC(CC)(NCCCn1ccnc1)c1ccccc1 [Example 80, N-(1-Ethyl-1-phenylpropyl)-3-(imidazol-1-yl)propylamine] | 54 | 52 |  |  | 
20 | CC(NCCCn1ccnc1)c1ccc(Cl)cc1 (single isomer, unassigned; (+)) [Example 93, (+)N-[1-(4-chlorophenyl)ethyl]-3-(imidazol-1-yl)-propylamine (+) ditartrate] |  |  |  | 16 | 57
21 | CC(NCCCn1ccnc1-c1ccccc1)c1ccc(Cl)cc1 (stereo not drawn) [Example 25, N-[1-(4-Chlorophenyl)ethyl]-3-(2-phenylimidazol-1-yl)propylamine dihydrochloride hydrate] | 19 | 34 |  |  | 
22 | Cc1ncn(CCCNC(C)(C)c2ccc(Cl)cc2)c1C [Example 70, N-[1-(4-Chlorophenyl)-1-methylethyl]-3-(4,5-dimethylimidazol-1-yl)propylamine] | 11 | 21 |  |  | 
23 | CC(C)(NCCCn1cnc(CO)c1)c1ccc(-c2ccccc2)cc1 [Example 85, 1-{3-[1-(4-biphenylyl)-1-methylethylamino]propyl}imidazol-4-yl-methanol] | 45 | 0 |  |  | 
24 | CC(NCCCn1ccnc1)c1ccc(Cl)c(Cl)c1Cl (stereo not drawn) [Example 13, N-[1-(2,3,4-Trichlorophenyl)ethyl]-3-(imidazol-1-yl)propylamine dihydrochloride] | 13 | 70 |  |  | 
25 | Clc1ccc(C2(NCCCn3ccnc3)CC2)cc1 [Example 82, N-[1-(4-Chlorophenyl)cycloprop-1-yl]-3-(imidazol-1-yl)propylamine dihydrochloride] | 16 | 38 |  |  | 
26 | CCOC(=O)C=Cc1ccc(CNCCCn2ccnc2C)cc1 [Example 51, ethyl 4-[3-(2-methylimidazol-1-yl)propylaminomethyl]cinnamate dihydrochloride] | 20 | 1 |  |  | 
27 | Cc1nccn1CCCNC(C)c1ccc(Cl)cc1 (stereo not drawn) [Example 52, N-[1-(4-chlorophenyl)ethyl]-3-(2-methylimidazol-1-yl)propylamine] |  |  |  |  | 27

Source: patent US5547972A, “Therapeutic agents useful for treating inflammatory diseases” (The Boots Company PLC, priority 1991, dated 1996)
